Data reported in publication PMC7498065, “Isolation of antigen-specific, disulphide-rich knob domain peptides from bovine antibodies” (PLoS Biology, 2020).
Entries after “also recorded” stand apart in the source; their conditions may differ. Where no end group is shown, it is not given here.

Target: Complement component C5 (Homo sapiens, UniProt P01031)
Assay: Biacore SPR single-cycle kinetics of isolated knob domain peptides binding to C5
Protocol: For knob domain peptides, flow cells were activated using a standard immobilisation protocol: EDC/NHS was mixed at 1:1 ratio (flow rate, 10 μL/min; contact time, 30 s). C5, at 1 μg/mL in pH 4.5 sodium-acetate buffer, was immobilized on flow cell 2 only (flow rate, 10 μL/min; contact time, 420 s). Finally, ethanolamine was applied to both flow cells (flow rate, 10 μL/min; contact time, 420 s). A final immobilization level of approximately 1,500–2,000 response units was obtained for peptide samples. For the PGT121-K149 fusion protein and K149 knob domain, the same immobilisation protocols were used but with a 750 ng/mL solution of C5, instead of 1 μg/mL.
One-micromolar stock solutions of the analytes (PGT121 knob domain fusion proteins and free knob domain peptides) were prepared in HBS-EP buffer. A series of six 3-fold dilutions of each stock solution was prepared in the same buffer. The result was 7 solutions for each analyte, at concentrations ranging from 1 μM down to 1.37 nM. A high flow rate of 40 μL/min was used, with a contact time of 230 s and a dissociation time of 1,800 s for knob domain peptides and 10,000 s for PGT121 knob domain fusion proteins. For the PGT121-K149 fusion protein and K149 knob domain, the flow rate was further increased to 100 μL/min. Binding to the reference surface was subtracted, and the data were fitted to a single-site binding model using Biacore evaluation software. Data were inspected for evidence of mass transport limitation using the flow-rate–independent component of the mass transfer constant (tc).

Complement component C5, sequence (P01031 19-673 limits assumed): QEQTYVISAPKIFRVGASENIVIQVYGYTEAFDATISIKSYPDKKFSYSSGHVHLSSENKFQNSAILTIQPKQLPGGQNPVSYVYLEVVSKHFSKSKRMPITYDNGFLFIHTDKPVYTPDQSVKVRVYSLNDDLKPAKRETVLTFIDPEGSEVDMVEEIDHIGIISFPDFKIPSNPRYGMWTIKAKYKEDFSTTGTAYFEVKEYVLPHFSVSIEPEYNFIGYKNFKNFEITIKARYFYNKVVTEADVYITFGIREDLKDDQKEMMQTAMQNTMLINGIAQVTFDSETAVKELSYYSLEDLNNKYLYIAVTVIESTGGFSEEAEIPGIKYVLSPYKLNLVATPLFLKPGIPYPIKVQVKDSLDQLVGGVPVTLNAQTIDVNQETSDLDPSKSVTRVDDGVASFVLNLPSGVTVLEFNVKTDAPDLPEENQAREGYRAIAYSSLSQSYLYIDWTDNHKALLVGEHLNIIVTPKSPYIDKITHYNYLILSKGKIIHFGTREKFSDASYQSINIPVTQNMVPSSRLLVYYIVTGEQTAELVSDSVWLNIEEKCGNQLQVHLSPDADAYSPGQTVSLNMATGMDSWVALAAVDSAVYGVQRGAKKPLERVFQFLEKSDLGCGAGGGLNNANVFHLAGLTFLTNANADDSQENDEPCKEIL
Complement component C5, sequence (P01031 678-1676 limits assumed): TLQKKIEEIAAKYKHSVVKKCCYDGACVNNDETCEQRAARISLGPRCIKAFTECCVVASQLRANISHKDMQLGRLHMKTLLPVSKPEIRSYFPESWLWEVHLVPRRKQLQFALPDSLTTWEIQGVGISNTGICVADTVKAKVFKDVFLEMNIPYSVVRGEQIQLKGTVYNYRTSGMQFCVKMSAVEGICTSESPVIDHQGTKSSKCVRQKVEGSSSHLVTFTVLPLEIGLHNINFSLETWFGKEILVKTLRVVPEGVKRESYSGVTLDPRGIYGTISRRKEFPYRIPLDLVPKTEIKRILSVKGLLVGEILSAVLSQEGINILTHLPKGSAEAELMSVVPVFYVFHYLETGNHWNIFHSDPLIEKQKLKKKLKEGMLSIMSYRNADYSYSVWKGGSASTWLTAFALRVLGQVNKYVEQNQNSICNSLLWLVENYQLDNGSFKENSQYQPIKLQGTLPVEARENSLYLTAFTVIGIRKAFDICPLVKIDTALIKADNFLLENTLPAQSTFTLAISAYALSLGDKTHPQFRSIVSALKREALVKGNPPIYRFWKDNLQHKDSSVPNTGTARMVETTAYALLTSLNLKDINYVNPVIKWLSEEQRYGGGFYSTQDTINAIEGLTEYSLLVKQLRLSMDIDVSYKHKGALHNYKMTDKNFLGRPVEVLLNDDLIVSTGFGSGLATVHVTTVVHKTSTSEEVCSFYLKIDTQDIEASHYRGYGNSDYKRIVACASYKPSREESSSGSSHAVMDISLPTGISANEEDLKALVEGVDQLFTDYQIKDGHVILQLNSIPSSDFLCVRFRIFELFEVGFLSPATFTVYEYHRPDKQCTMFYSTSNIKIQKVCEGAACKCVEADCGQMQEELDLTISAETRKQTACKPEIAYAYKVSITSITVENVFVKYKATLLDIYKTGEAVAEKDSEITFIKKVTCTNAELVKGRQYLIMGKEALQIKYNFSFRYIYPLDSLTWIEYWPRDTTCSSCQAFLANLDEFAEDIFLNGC

In the case of “GKSCREGYIDGGGCCLPGSCRGCACSYYDWLKCPRDCRGTSEEENLYFQ (also: bicyclic or more (positions not given here)) [K60, isolated bovine knob domain peptide, TEV-excised from PGT121 Fab]”, the “mean KD” value (SPR single-cycle kinetics, 1:1 model, mean of 3 experiments (Fig 6)) is reported as “not to bind; also recorded: Non-binding”, the “Mean Stoichiometric ratio at 1 µM” value (SPR, analyte 1 µM, mean of n=3 occasions) is reported as <0.1 and the “Stoichiometric ratio at 1 µM” value (occasion n=1) is reported as <0.1. For the same sequence, the “Stoichiometric ratio at 1 µM” value (occasion n=2) was <0.1 and the “Stoichiometric ratio at 1 µM” value (occasion n=3) was <0.1.
